According to US20240041856A1, “LIQUID APIXABAN FORMULATION IN SMALL DOSE VOLUME” (DAFECHEM LIMITED, priority 2020, published 2024):

What was measured:
[1] = Stability of apixaban in propylene glycol on heating; type: physicochemical; conditions: temperature increase up to 90° C.
Description: (§1) However, for achieving solutions of apixaban with concentration of more than 0.5 mg/mL in a vehicle comprising at least 35% (w/v) propylene glycol based on the total formulation, heating within the range of 25-90° C. is applied so to achieve full and quick solubilization of apixaban.

[2] = Solubility of apixaban in propylene glycol based vehicles; type: physicochemical
Description: as §1
Concentrated solutions of apixaban are necessary in order to achieve low dosage volumes. The temperature of the mixture of apixaban and optionally co-solvents can be up to 90° C.

COc1ccc(-n2nc(C(N)=O)c3c2C(=O)N(c2ccc(N4CCCCC4=O)cc2)CC3)cc1 [Apixaban, 1-(4-methoxyphenyl)-7-oxo-6-[4-(2-oxopiperidin-1-yl)phenyl]-4,5,6,7-tetrahydro-1H-pyrazolo[3,4c]pyridine-3-carboxamide]
Stability of apixaban in propylene glycol [1]: stable
Dissolution of apixaban in the vehicle ([2]; 0.25 mg/mL apixaban, vehicle with at least 35% (w/v) propylene glycol, room temperature): dissolves freely
Most concentrated apixaban solutions prepared ([2]; dissolving at temperature up to 90° C. in at least 35% (w/v) of propylene glycol): up to 10 mg/mL
